This is an account of results in BindingDB's records for doi:10.1016/j.bmcl.2013.08.079 (Saint John'S University, 2013).

Structures are written as SMILES.

The assay deals with Low molecular weight phosphotyrosine protein phosphatase (Homo sapiens) (UniProt P24666). In words: Noncompetitive inhibition of human GST-tagged LMW-PTP-B expressed in Escherichia coli JM 109 cells using p-nitrophenyl phosphate as substrate after 15 mins by microplate reader analysis.
Sequence of Low molecular weight phosphotyrosine protein phosphatase (Homo sapiens) (P24666 whole entry, looked up): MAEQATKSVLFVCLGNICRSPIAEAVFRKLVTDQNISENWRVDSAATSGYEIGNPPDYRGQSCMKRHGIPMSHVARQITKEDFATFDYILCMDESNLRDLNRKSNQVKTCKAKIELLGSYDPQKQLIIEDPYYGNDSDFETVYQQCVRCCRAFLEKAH

Regarding `O=C(O)c1nc2nc(Cl)c(Cl)nc2[nH]1`, the Ki – broadly, a measure of affinity in units of concentration, obtained from inhibition or displacement – came to 26 µM.
`CC(=O)Nc1c(C)cc(OCC(=O)O)cc1C` displayed a Ki of 73.2 µM.
